We go through nine molecules from patent publication US8927695B2, “Protein-based assays for screening of the IgE-receptor interaction” (The Board of Trustees of the Leland Stanford Junior …, priority 2010, dated 2015).

In experiment [1] the target is mutant hormone / mutant receptor (hGH/hGHbp) (Homo sapiens, UniProt P01241+P10912, T201G/W122G). As to conditions: at a concentration of 100 μM; cited from earlier work.
The target of a further experiment is LFA-1/ICAM-1 interaction (Homo sapiens, UniProt P05107+P20701). As to conditions: solid-phase binding assay stated for LFA703; cited from earlier work.
In a further experiment the test system is inflammatory response. As to conditions: mouse model of acute inflammation; cited from earlier work.
The target in another experiment is transthyretin (TTR) (Homo sapiens, UniProt P02766). The following applies: in vitro; cited from earlier work.
In experiment [2] the target is T1, 488-labeled 367C IgE-Fc bound to FcεRIα (Homo sapiens, UniProt P01854+P12319, K248C).
T1 construct: starts at amino acid 1 and ends at amino acid 176 of said FcεRIα, using the numbering −25 to 232; made in house; host or cells: IgE-Fc: insect cells (Trichoplusia ni)
As to the kind of experiment: fluorescence assay in competitive inhibitor format. Format: binding. As for the experimental part:
Fluorescence Measurement. Samples were monitored by fluorescence using a Synergy 4 Fluorometer (BioTek) in black 96-well Costar fluorescence plates (Corning). Samples were prepared manually by mixing Alexa-488-labelled 367C IgE-Fc in 0.1% Tween-20 and 100 nM BSA, with buffered 50 mM Tris and 50 mM NaCl, pH 8. Fluorescence was measured using an excitation wavelength of 488 nm and emission was monitored at 520 nm. The read-type for typical measurements was Endpoint. All measurements were recorded in duplicate.

The target of the next experiment is T2, FcεRIα (Homo sapiens, UniProt P12319).
T2 sequence (P12319 26-257): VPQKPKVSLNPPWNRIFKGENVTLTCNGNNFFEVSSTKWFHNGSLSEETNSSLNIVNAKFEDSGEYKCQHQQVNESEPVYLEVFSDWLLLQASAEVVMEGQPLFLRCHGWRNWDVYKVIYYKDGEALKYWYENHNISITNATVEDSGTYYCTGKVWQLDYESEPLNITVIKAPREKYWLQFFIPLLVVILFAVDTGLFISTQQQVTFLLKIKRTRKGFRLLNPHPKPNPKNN
The following applies: natural IgE-receptor interaction; read-out: affinity of the natural receptor interaction; cited from earlier work.

For the molecule `Clc1ccc2nc(C(Cl)(Cl)Cl)[nH]c2c1` [5-Chloro-2-trichloromethyl benzimidazole], in experiment [1], the “increase in binding affinity of the mutant hormone to the mutant receptor” value was “more than 1000 fold”.

As a reminder, the IC50 is the midpoint of a concentration-inhibition curve. In the case of `CC[C@H](C)C(=O)O[C@H]1C[C@@H](C)C=C2C=C[C@H](C)[C@H](CC[C@H]3C[C@@H](O)CC(=O)N3Cc3ccc4c(CO)c(OC)ccc4c3)[C@H]21` [LFA703], on LFA-1/ICAM-1 interaction, the IC50 is 200 nM. For the same molecule, in the experiment with inflammatory response, the inflammatory response result is “suppress the inflammatory response”.

With `O=C(O)c1cccc2c1Oc1c(C(=O)O)cccc1N2c1cccc(C(F)(F)F)c1` [PHENOX, N-(meta-trifluoromethylphenyl)-phenoxazine-4,6-dicarboxylic acid], the “inhibition of TTR amyloid fibril formation” value (shortened to “inhibition”) at transthyretin (TTR) was “potent inhibitors”.

Take `O=C(O)Cc1ccccc1Nc1c(Cl)cccc1Cl` [diclofenac]: the “inhibition” value on transthyretin (TTR) was “strongly inhibited”.

Regarding `O=C(O)c1ccccc1Nc1cccc(C(F)(F)F)c1` [flufenamic acid], the “inhibition” value at transthyretin (TTR) is “potently inhibit”.

As to `CC(C(=O)O)c1ccc(-c2ccccc2)c(F)c1` (stereo not drawn) [flurbiprofen], at transthyretin (TTR), the “inhibition” value is listed as “strongly inhibited”.

Turning to `O=C(O)c1ccccc1Nc1ccccc1C(F)(F)F` [o-FLU, ortho-trifluoromethylphenyl anthranilic acid], on transthyretin (TTR), the “inhibition” value is on record as “potent inhibitors”.

With `Oc1ccc(C=Cc2cc(O)cc(O)c2)cc1` [resveratrol], the “inhibition” value on transthyretin (TTR) is on record as “strongly inhibited”.

B1: unlabeled IgE-Fc: unlabeled wild type human IgE-Fc (Cε3-Cε4) used as competitor (protein, listed as Homo sapiens)
chain: ADPCADSNPRGVSAYLSRPSPFDLFIRKSPTITCLVVDLAPSKGTVNLTWSRASGKPVNHSTRKEEKQRNGTLTVTSTLPVGTRDWIEGETYQCRVTHPHLPRALMRSTTKTSGPRAAPEVYAFATPEWPGSRDKRTLACLIQNFMPEDISVQWLHNEVQLPDARHSTTQPRKTKGSGFFVFSRLEVTRAEWEQKDEFICRAVHEAASPSQTVQRAVSVNPGK
modifications: PEPTIDE (1)..(223) Wildtype IgE-Fc (C3-C4)
In the case of B1, the “direct effect on fluorescence of the dye-labeled IgE-Fc” value in experiment [2] (control in the absence of FcεRIα) was “no significant effect”. Besides, the “fluorescence recovery / competition of receptor binding” value in experiment [2] (in the presence of FcεRIα) is recorded as “completely competed”. Moreover, the Kd in the experiment with FcεRIα is roughly 1 nM.
